Measured values: publication PMC6754133 (PLoS ONE, 2019)

Legend:
mSMO = target: T1, mSMO (Mus musculus, UniProt P56726); assay: BODIPY-Cyclopamine competition binding assay, flow cytometry, HEK293T cells transiently transfected with mSMO; details: BODIPY-Cyclopamine 5 nM
T1 construct: host or cells: HEK293T
Description: Prior to transfection, cell culture media was replaced with DMEM + 10%FBS for mSMO transfection and with DMEM + 10%BCS for ShhN transfection. The transfected dish was incubated for approximately 24 hours at 37°C. For the production of ShhN conditioned medium, the culture medium from ShhN-transfected HEK293T cells was collected, aliquoted in single use 1.5 mL Eppendorf tubes and either used fresh or stored at -20°C.
HEK293T cells transiently transfected with mSMO were lifted with trypsin (0.25%) and replated at 6×10^4 cells in 80 μL DMEM + 10%FBS per well in a 96 well tissue-culture treated plate (Falcon, 353219). The plate was incubated at 37°C for 24 hours. Serial dilutions of test compounds (10x final concentrations) were prepared in culture media. 10 μL of diluted compounds or control media were added to the plate after which the plate was incubated at 37°C for 10 min. […] Following at least 1.5 hours incubation at 37°C in 5% CO2, cells were lifted by vigorous pipetting, transferred to conical bottom 96-well plates, and centrifuged at 400 × g for 5 min at 4°C. Supernatant was discarded, cells were re-suspended in 300 μL of PBS + 0.5% BSA (freshly prepared), and the plate was analyzed with Guava benchtop flow cytometer. The results were interpreted with FlowJo software (version v10.1). Dose response curves were constructed in Prism 6 (GraphPad Software, La Jolla, CA).

MB-PDX xenograft = assay: Subcutaneous patient-derived medulloblastoma xenograft model, tumor volume; assay type: in vivo, mouse; details: NSG mice, 40 mg/kg daily intraperitoneally from day 7, 42 days
Description: Tumor volumes were monitored three times a week in the course of treatment.
NSG mice, 4–6 weeks old, were injected subcutaneously at shoulders and flanks with 1 × 10^6 viable MB-PDX cells in 1:1 HBSS and gelatinous protein mixture Matrigel. […] The tumor size was measured three times a week with a caliper, and tumor volumes were calculated according to the formula (length × width × width × 0.5). At day 42 post-grafting, all mice were euthanized by isoflurane inhalation and cervical dislocation.

[1] = tested on: Gli-1 mRNA in Math1-Cre; ptch1-flox/flox cells; assay: qRT-PCR of Gli-1 mRNA in Math1-Cre; ptch1-flox/flox (PTCH -/-) cells treated ex vivo; assay type: cell-based, mouse; details: 10 μM ex vivo, 24 hours
Description: An in vivo medulloblastoma model was established as described before. Briefly, 6–7 weeks old NOD-scid IL-2Rg null (NSG) mice (the Jackson Laboratory) were anesthetized with xylazine-ketamine, and […]. Dissociated Math1-Cre; ptch1-flox/flox cells (1×10^6 cells in 4 μL HBSS)[58] were injected into the mouse brains using murine stereotaxic system (Stoelting Co). The coordinates were: 1.8mm to the right of bregma and 3mm deep from the dura. To disassociate the orthotopic tumor into the single cells for the serial implantation or the ex-vivo experiment, the tumor was dissected from the cerebellum, followed by digestion using Papain (10 U per mL), DNase (250 U) and L-cystein (2 mg) at 37°C for 30 min.
Both post-vivo MB-PDX cells and Math1-Cre; ptch1-flox/flox cells were analyzed for Gli-1 mRNA expression. For that, total RNA was extracted from dissociated single cells using QIAGEN RNease Mini Kit and cDNA was prepared using 1μg RNA with iScript cDNA Synthesis Kit (Bio-Rad). SYBR green-based QPCR was performed using murine primers listed as below (GLI1, Forward 5’- […]-3’, Reverse 5’-[…]-3’, GAPDH Forward 5'-[…] -3', Reverse 5'-[…]-3'). mRNA levels were normalized to GAPDH (dCt = Ct gene of interest–Ct GAPDH) and reported as relative mRNA expression (ddCt = 2-^(dCt sample–dCt control)) in fold change.

[2] = target: Carbonic anhydrase 1 (CAH1_HUMAN); details: S2/S3 Table; ref [2] Parkkila S et al., Bioorg Med Chem Lett. 2009; cited from earlier work

T1 sequence (P56726 33-793): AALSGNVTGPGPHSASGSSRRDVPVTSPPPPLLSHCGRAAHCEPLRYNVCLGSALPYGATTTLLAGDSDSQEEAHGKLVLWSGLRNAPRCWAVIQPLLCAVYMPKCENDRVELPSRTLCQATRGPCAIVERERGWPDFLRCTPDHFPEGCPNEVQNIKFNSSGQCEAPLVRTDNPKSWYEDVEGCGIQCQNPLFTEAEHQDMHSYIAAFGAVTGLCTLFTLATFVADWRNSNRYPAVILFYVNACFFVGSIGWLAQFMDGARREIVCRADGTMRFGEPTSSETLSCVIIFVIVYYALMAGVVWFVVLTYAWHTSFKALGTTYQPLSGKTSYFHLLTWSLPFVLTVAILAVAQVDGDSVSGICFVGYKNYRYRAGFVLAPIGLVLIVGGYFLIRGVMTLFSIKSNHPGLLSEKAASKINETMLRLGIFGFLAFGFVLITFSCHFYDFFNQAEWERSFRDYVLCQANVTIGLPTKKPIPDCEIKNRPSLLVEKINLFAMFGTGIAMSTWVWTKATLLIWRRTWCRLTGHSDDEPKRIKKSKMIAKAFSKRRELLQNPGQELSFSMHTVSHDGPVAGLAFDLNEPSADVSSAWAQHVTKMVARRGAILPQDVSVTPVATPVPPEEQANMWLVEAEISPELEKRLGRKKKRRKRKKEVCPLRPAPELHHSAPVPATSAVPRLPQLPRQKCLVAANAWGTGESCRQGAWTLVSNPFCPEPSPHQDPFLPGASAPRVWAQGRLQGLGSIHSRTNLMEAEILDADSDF

Cc1cn(-c2cc(NC(=O)c3ccc(C)c(Nc4nccc(-c5cccnc5)n4)c3)cc(C(F)(F)F)c2)cn1 [Nilotinib]
Displacement of BODIPY-Cyclopamine from SMO (in words) (mSMO): displace BODIPY-Cyclopamine | IC50 (mSMO; HEK293T cells transfected with mSMO, n = 2, estimated, read-out: SMO binding IC50): 3.11 µM | Tumor volume versus vehicle-treated group (MB-PDX xenograft): significantly smaller tumors | Gli-1 mRNA expression versus vehicle treated cells [1]: significant reduction in Gli-1 mRNA expression | Kd/Ki Value [2]: 0.0293 µM
